Data published in US6245738A, “Cytokine restraining agents” (Trega Biosciences, Inc., priority 1994, dated 2001).
Square brackets hold non-standard residues; d marks the D form. Peptide text beside a SMILES is read from it.

How the values were obtained:
interleukin-6 (IL-6) = test: Reduction of LPS-induced interleukin-6 levels in mice, IL-6-specific ELISA; assay type: in vivo, Balb/c mice; settings: 300 μg/mouse (Table I), LPS treated mice; vs control mice
Description: Balb/c mice were grouped and treated as described in Example III, above. Blood samples were obtained from the orbital sinus at various times up to six hours and serum was collected and diluted as described above. A 100 μl aliquot was assayed for IL-6 levels using an IL-6-specific ELISA by a modification of the method of Starnes et al., J. Immunol. 145:4185-4194 (1990), which is incorporated herein by reference.
The mean (+/-SEM) IL-6 level in six mice from each group was determined and the percent reduction in IL-6 was calculated.

TNF-α [1] = test: Reduction of LPS-induced TNF-α levels in mice (ip peptide), plasma ELISA; assay type: in vivo, Balb/c female mice; settings: 1 min before 5 mg/kg LPS ip, vs control mice
Description: Balb/c female mice weighing approximately 20 g were placed into two groups, a control group and a treated group. Five mg/kg of LPS in 0.9% saline was administered by intraperitoneal (ip) injection into the control mice. Mice in the treated group were first injected ip with 30 μg EX-2 or 150 μg EX-3 in saline, then, one minute after EX-2 or EX-3 was administered, the mice received LPS as described for the control group.
Blood samples were collected from the orbital sinus of treated and control mice at various times up to four hours after LPS was administered. The plasma was separated by centrifugation at 3000×g for 5 min, then diluted with four volumes of 1× phosphate buffer saline (pH 7.4) containing 1% bovine serum albumin. A 100 μl sample of serum was assayed by ELISA for TNF-α (Genzyme; Cambridge Mass.).
The mean (+/-SEM) TNF-α level in six mice from each group was determined and the percent reduction in TNF levels was calculated.

[2] = tested on: IL-1β-induced hyperalgesia; test: Interleukin-1β-induced hyperalgesia, paw pressure test; assay type: in vivo, adult male Sprague-Dawley rats; settings: 1 μg ip, 20 min before intraplantar IL-1β; 2 hr after IL-1
Description: These experiments were performed using a modification of the methods described by Poole et al., Br. J. Pharmacol. 106:489-492 (1992); Follenfant et al., Br. J. Pharmacol. 98:41-43 (1989); and Randall and Sellito, Arch. Internatl. Pharmacodyn. 111:409-419 (1957), each of which is incorporated herein by reference. Adult male Sprague-Dawley rats (175-275 g) were tested for hyperalgesia by a paw pressure technique using variable pressure instrumentation (IITC Life Sciences; Woodland Hills, Calif.). Rats were acclimated to the housing environment and were handled for three days prior to beginning a training session. On the day before the hyperalgesia experiments was to begin, each rat was placed into a sock and two variable paw pressure tests were performed 15 min apart. […] Approximately 5-10% of the rats were non-responders and were eliminated from further experiments.
Animals that responded to the paw pressure were pretreated by ip injection of various concentrations of EX-2 in a volume of 1 ml/kg (treated) or saline, alone (control). After 20 min, 100 μl of IL-1β (1U/100 μl) was administered to rats via intraplantar injection. Two hr after IL-1 administration, rats were subjected to two additional paw pressure tests and the increase in mm Hg of pressure that could be applied to the EX-2-treated rats as compared to the control rats was determined.

LPS-induced lethality [3] = test: Lipopolysaccharide-induced lethality (ip peptide); assay type: in vivo, adult female Balb/c mice; settings: 11 × 300 μg/mouse ip (3.3 mg total), every 4 hr; 0.6 mg LPS
Description: These experiments were performed based on information reported by Rivier et al., Endocrinology 125:2800-2805 (1989), which is incorporated herein by reference. Adult female Balb/c mice were provided food and water ad libitum. Mice were injected ip every four hours for 40 hr with 30 to 300 μg EX-2 or EX-3 in 0.2 ml saline (treated group) or with 0.2 ml saline, alone (control group) (10 mice per group). Immediately following the first injection, 0.6 mg LPS endotoxin in 0.2 ml saline was administered to each mouse. Following LPS injection, EX-2 or saline was administered to the treated mice or the control mice, respectively, every 4 hr for 36 hr.

[4] = tested on: LPS-induced PMN infiltration in lungs; test: Adult respiratory distress syndrome: PMN count in broncho-alveolar lavage after intratracheal LPS; assay type: in vivo, male Harlan Sprague-Dawley rats; settings: 100 μg/kg ip at 0, 2 and 4 hr; lavage at 6 hr after intratracheal LPS 5 mg/kg
Description: These experiments were performed using a modification of the methods described by Ulich et al., Am. J. Pathol. 141:61-68 (1992) and by Wheelden et al., Lab. Animals 26:29-37 (1992), each of which is incorporated herein by reference. Male Harlan Sprague-Dawley rats were anesthetized using a mixture of 70 mg/kg ketamine and 6 mg/kg rompun injected ip. A 2-3 cm incision was made in the neck of each anesthetized rat and its trachea was exposed by blunt dissection of the surrounding soft tissue. The rats were suspended on a near vertical slab and intratracheal injections were performed by inserting into the exposed trachea, at a point 1 cm posterior to the larynx, a 25G×1/2 inch needle attached to a 1 cc syringe.
Each rat received 0.5 ml/kg of saline or 0.5 ml/kg of 10 mg/ml (5 mg/kg) LPS endotoxin via slow intratracheal administration. Immediately following administration of the LPS endotoxin, rats were injected ip with 1 ml/kg of either saline (control) or saline containing various concentrations of EX-2 (treated). The rats were maintained in the elevated position for 1-2 min to facilitate distribution of the LPS and saline into the lung. The incisions were closed and the rats were allowed to recover. […]
The total polymorphonuclear leukocytes (PMN; neutrophils) in the broncho-alveolar lavage fluid were counted in the EX-2-treated rats and compared with the number in the control rats.

[5] = tested on: arachidonic acid-induced ear swelling; test: Arachidonic acid-induced ear swelling; assay type: in vivo, female Balb/c mice; settings: 100 μg/mouse ip, 30 min prior to AA; 60 min after AA application
Description: Experiments were performed using female Balb/c mice weighing 18-23 grams. Saline or 100 μg EX-2 or EX-3 was administered ip, 30 min prior to topical application of arachidonic acid (AA). A 10 μl pipet was used to apply 10 μl AA solution (100 mg/ml ethanol; Calbiochem-Novabiochem; San Diego, Calif.) to the inner and outer surfaces of the right ear of each mouse. Ten μl ethanol, alone, was applied to the inner and outer surface of the left ear of each mouse. Ear thickness was measured with a hand-held spring loaded caliper immediately before and 60 min after AA application. Increase in ear thickness was calculated by subtracting the change observed in the control ear from the change observed in AA-treated ear. The value for each group (saline and control) is the average of the swelling observed in the individual mice in each group. The percent reduction of swelling is based on the swelling observed in the saline control group.

TNF-α [6] = test: LPS-induced TNF-α levels, orally administered peptide (gavage); assay type: in vivo, Balb/c female mice; settings: 1 min before 0.1 mg LPS ip
Description: The ability of orally administered cytokine restraining agents to reduce LPS-induced TNF-α levels also was examined. Balb/c female mice (20 g) were administered 150 μg or 300 μg EX-2, EX-3, EX-4 or EX-5 in 100 μl saline by gavage. Control mice received 100 μl saline, alone. One minute later, 0.1 mg LPS was administered by ip injection. Samples were collected and TNF-α levels were determined as described in Example III, above.
The mean TNF-α levels in the mice from each group (n=9-20) was determined and the percent reduction in TNF-α levels was calculated.

LPS-induced lethality [7] = test: LPS-induced lethality, orally administered peptide (gavage); assay type: in vivo, adult female Balb/c mice; settings: 0.6 mg LPS ip
Description: The LPS-induced lethality studies were performed based on information reported by Rivier et al., supra, 1989. Adult female Balb/c mice were provided food and water ad libitum. Mice were administered 150 μg or 300 μg EX-2, EX-3, EX-4 or EX-5 in 100 μl saline by gavage every 4 hr for 40 hr (total doses of 1.65 mg and 3.3 mg, respectively). Control mice received 100 μl saline, alone. Immediately following the first dose of cytokine restraining agent or saline, 0.6 mg LPS in 0.2 ml saline was administered by ip injection.

[8] = 3.3 mg total (300 μg by gavage every 4 hr for 40 hr)

SMILES	Inhibition of LPS-induced Lethality (increase in survival) (LPS-induced lethality [3]) [%]	Reduction in arachidonic acid-induced Ear Swelling [5] [%]	percent reduction in TNF-α levels, oral (TNF-α [6]; 300 μg by gavage) [%]	increase in survival, oral (LPS-induced lethality [7]; [8]) [%]	also measured
CCCC[C@H](NC(C)=O)C(=O)N[C@@H](CCC(N)=O)C(=O)N[C@@H](Cc1c[nH]cn1)C(=O)N[C@H](Cc1ccccc1)C(=O)N[C@@H](CCCNC(=N)N)C(=O)N[C@H](Cc1c[nH]c2ccccc12)C(=O)NCC(N)=O [EX-2, Ac-Nle-Gln-His-(D)Phe-Arg-(D)Trp-Gly-NH2]	83	72			Reduction in IL-6 levels (interleukin-6 (IL-6)): 60%; Reduction in TNF levels (TNF-α [1]; 30 μg/mouse ip): 50%; Reduction in IL-1-induced Hyperalgesia (increase in tolerated paw pressure) [2]: 125%; Reduction in LPS-induced PMN Count [4]: 58%
CC(=O)N[C@H](C(=O)N[C@@H](CCC(N)=O)C(=O)N[C@@H](Cc1c[nH]cn1)C(=O)N[C@H](Cc1ccccc1)C(=O)N[C@@H](CCCNC(=N)N)C(=O)N[C@H](Cc1c[nH]c2ccccc12)C(=O)NCC(N)=O)C1CCCCC1 [EX-3, Ac-(cyclohexyl)Gly-Gln-His-(D)Phe-Arg-(D)Trp-Gly-NH2]	86	62	40		percent reduction in TNF-α levels, oral (TNF-α [6]; 150 μg by gavage): 49%; Reduction in TNF levels (TNF-α [1]; 150 μg/mouse ip): 56%
CC(=O)N[C@@H](Cc1c[nH]cn1)C(=O)N[C@H](Cc1ccccc1)C(=O)N[C@@H](CCCNC(=N)N)C(=O)N[C@H](Cc1c[nH]c2ccccc12)C(=O)NCC(N)=O [EX-4, Ac-His-(D)Phe-Arg-(D)Trp-Gly-NH2] (Ac-H[dF]R[dW]G-NH2)			44	63	
CC(=O)N[C@@H](Cc1c[nH]cn1)C(=O)N[C@H](Cc1ccccc1)C(=O)N[C@@H](CCCNC(=N)N)C(=O)N[C@H](Cc1c[nH]c2ccccc12)C(N)=O [EX-5, Ac-His-(D)Phe-Arg-(D)Trp-NH2]				44	increase in survival, oral (LPS-induced lethality [7]; 1.65 mg total (150 μg by gavage every 4 hr for 40 hr)): 68%
